“Also recorded” adds a separate entry of the source.
Experiments:
[1] = target: T1, alpha-synuclein/Synapsin III interaction (Homo sapiens, UniProt O14994+P37840); experiment: Acceptor photobleaching FRET of alpha-synuclein/Synapsin III interaction in neuronal-differentiated SK-N-SH cells; format: cell-based; conditions: 10 μM, 15 min; for stimulation of alpha-synuclein/Synapsin III interaction (FRET efficiency), in words: vs basal
T1 construct: expressed in transfected cells; host or cells: neuronal-differentiated (retinoic acid) human SK-N-SH neuroblastoma cells, transient transfection with Lipofectamine 3000
T1 sequence (O14994 whole entry, one chain of several): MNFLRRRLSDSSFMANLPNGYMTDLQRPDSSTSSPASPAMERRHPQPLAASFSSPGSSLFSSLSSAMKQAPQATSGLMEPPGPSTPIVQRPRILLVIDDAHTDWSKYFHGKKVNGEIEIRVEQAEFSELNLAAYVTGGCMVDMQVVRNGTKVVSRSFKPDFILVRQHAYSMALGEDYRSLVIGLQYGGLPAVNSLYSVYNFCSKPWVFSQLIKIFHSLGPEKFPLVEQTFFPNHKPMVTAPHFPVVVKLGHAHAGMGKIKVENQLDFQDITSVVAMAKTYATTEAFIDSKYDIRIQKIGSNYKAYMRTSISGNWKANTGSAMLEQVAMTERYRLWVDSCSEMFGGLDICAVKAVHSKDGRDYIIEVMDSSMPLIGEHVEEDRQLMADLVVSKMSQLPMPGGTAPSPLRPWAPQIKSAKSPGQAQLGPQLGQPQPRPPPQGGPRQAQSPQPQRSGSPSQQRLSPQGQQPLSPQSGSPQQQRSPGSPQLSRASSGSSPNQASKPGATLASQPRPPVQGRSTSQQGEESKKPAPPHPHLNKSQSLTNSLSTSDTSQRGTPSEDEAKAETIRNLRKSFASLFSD
Procedure: The ability of the different compound to stimulate alpha-synuclein/Synapsin III interaction was evaluated by acceptor photobleaching FRET or FLIM in neuronal-like cells. In particular, we used neuronal-differentiated SK—N—SH neuroblastoma cells transiently transfected with red fluorescent protein (RFP)-tagged human wild type alpha-synuclein and green fluorescent protein (GFP)-tagged the human 63 kDa Synapsin III isoform.
Acceptor photobleaching FRET microscopy allows an accurate evaluation of protein-protein interaction through the measurement of FRET efficiency. This parameter is indicative of the increase of donor fluorescence after complete photobleaching of the acceptor fluorescence, within a FRET pair of fluorophores (where the emission wavelength of a donor falls within the excitation wavelength of an acceptor). Since FRET efficiency is detectable only when the two fluorophores are sufficiently close to ensure that their linked proteins are interacting, the molecular proximity of these latter results strictly dependent on this parameter^36,37. […] Human neuroblastoma SK—N—SH cells were grown in complete medium comprising Dulbecco's modified Eagle's medium with 1000 mg glucose/l supplemented with 10% heat-inactivated fetal bovine serum, 100 μg/ml penicillin and 100 μg/ml streptomycin. Cells were maintained at 37° C. under a humidified atmosphere of 5% CO2 and […]. For FRET studies, SK—N—SH cells were seeded onto poli-D-lysine-coated 13 mm glass coverslips in 24-well plates (15000 cells per coverslip) and were maintained in differentiation medium for ten days by daily adding 10 μM retinoic acid to the medium. […] Fixed cells were analyzed by means of a Zeiss confocal laser microscope LSM 880 (Carl Zeiss) with the laser set on A=488-543. After identifying double positive cells three-to-six regions of interest (ROI) were analyzed for 4 series. Two images of basal condition (Pre-bleaching) were acquired before bleaching the RFP acceptor fluorophore with laser 543 set at 65% power. Then, other two images were acquired after the bleaching (Post-bleaching). The FRET efficiency (intended as the GFP recovery after RFP photobleaching) was measured by using Zen black software (Carl Zeiss). The average intensity of the background (outside the cell) was subtracted from the average intensity of the ROI and all the FRET values resulting from the different ROI were used for statistical analysis.
Human neuroblastoma SK—N—SH cells were grown in complete medium comprising Dulbecco's modified Eagle's medium with 1000 mg glucose/l supplemented with 10% heat-inactivated fetal bovine serum, 100 μg/ml penicillin and 100 μg/ml streptomycin. Cells were maintained at 37° C. under a humidified atmosphere of 5% CO2 and […]. For FRET studies, SK—N—SH cells were seeded onto poli-D-lysine-coated 13 mm glass coverslips in 24-well plates (15000 cells per coverslip) and were maintained in differentiation medium for ten days by daily adding 10 μM retinoic acid to the medium. […] Fixed cells were analyzed by means of a Zeiss confocal laser microscope LSM 880 (Carl Zeiss) with the laser set on λ=488-543. After identifying double positive cells three-to-six regions of interest (ROI) were analyzed for 4 series. Two images of basal condition (Pre-bleaching) were acquired before bleaching the RFP acceptor fluorophore with laser 543 set at 65% power. Then, other two images were acquired after the bleaching (Post-bleaching). The FRET efficiency (intended as the GFP recovery after RFP photobleaching) was measured by using Zen black software (Carl Zeiss). The average intensity of the background (outside the cell) was subtracted from the average intensity of the ROI and all the FRET values resulting from the different ROI were used for statistical analysis.

[2] = system: primary mesencephalic cultures; experiment: MTT cell viability assay; format: cell-based, mouse; conditions: 24 h
Procedure: The cytotoxic effect of compounds treatment was measured by evaluating mitochondrial dehydrogenase activity using the MTT salt assay.
Neuronal differentiated SK—N—SH cells were thus exposed to different concentrations of I-threo, IV-threo, I-erythro, V-threo and V-erythro as described above, and then used for the MTT cell viability assay.
Animals: C57BL/6J wt mice (C57BL/6J) (Charles River, Wilmington, MA) used in this study, were bred in our animal house facility at the Department of Molecular and Translational Medicine of University of Brescia. Animals were maintained under a 12h light-dark cycle at a room temperature (rt) of 22° C. and had ad libitum food and water. All experiments were made in accordance to Directive 2010/63/EU of the European Parliament and of the Council of 22 Sep. 2010 on the protection of animals used. All experimental and surgical procedures conformed to the National Research Guide for the Care and Use of Laboratory Animals were approved by the Animal Research Committees of the University of Brescia (Protocol Permit 719/2015-PR). All achievements were made to minimize animal suffering and to reduce the number of animals used. Primary neuronal cultures from mesencephalic tissues were dissected from C57BL/6J 13-days embryos. Briefly, after mechanical dissociation the single cells were re-suspended in Neurobasal medium containing 100 μg/ml penicillin, 100 μg/ml streptomycin, 0.5 mM glutamine and 1% B27 supplement. Cells were then centrifuged and cell count and viability assays were performed using the Trypan Blue exclusion test. Cells were seeded onto poly-D-lysine-coated glass coverslides in 24-well plates (14 μg/mL) for immunocytochemistry (100000 cells/well). Cells were maintained at 37° C. under a humidified atmosphere of 5% CO2 and […] for at least 10 days in vitro (DIV 10) prior to their use to allow their maturation. At DIV 10, cells were treated with increasing concentrations (0.01 μM-0.1 μM-1 μM-[…]) of the different compounds (I-threo, IV-threo, I-erythro, V-threo, VI-threo). Twenty-four h after the treatments, culture medium was removed and 300 μL of MTT 0.5 mg/mL diluted in culture medium was added to each well. After 90′ incubation at 37° C., the medium was removed and 250 μL aliquots of DMSO were added to each well to solubilize the formazan crystals. Absorbance was measured at 570 nm using a microplate reader. Cell viability was expressed as absorbance value.

Row | Structure (SMILES) | stimulation of alpha-synuclein/Synapsin III interaction (FRET efficiency), in words [1] | cell viability (MTT) at 100 μM [2] | % FRET efficiency change vs control untreated cells ([1]; neuronally differentiated SK-N-SH cells) | % FRET efficiency change vs MPH-treated cells ([1]; vs MPH 10 μM) | % FRET efficiency change vs VI-threo-treated cells ([1]; vs VI-threo 10 μM) | cell viability (MTT) at 100 μM ([2]; hydrochloride) | toxic effects (MTT) at the working concentrations ([2]; concentrations reducing aggregation or stimulating interaction)
1 | COC(=O)[C@H](c1ccc(C)cc1)C1CCCCN1.Cl (stereo partly drawn) [I-erythro] | not able to stimulate alpha-synuclein/Synapsin III interaction; also recorded: No significant increase | did not result toxic |  |  |  |  | 
2 | COC(=O)[C@@H](c1ccc(C)cc1)C1CCCCN1.Cl (stereo partly drawn) [I-threo, threo methyl 2-(piperidin-2-yl)-2-(p-tolyl)acetate hydrochloride] | significant increase in the FRET efficiency |  | +8.8% | +5.5% | +5.2% | reduce the cell viability; also recorded: significant decrease in cell viability | did not exhibit toxic effects
